A word on the IC50: it is the midpoint of a concentration-inhibition curve.

Some results are limits rather than exact numbers.

T1 sequence (P23443 whole entry T412E): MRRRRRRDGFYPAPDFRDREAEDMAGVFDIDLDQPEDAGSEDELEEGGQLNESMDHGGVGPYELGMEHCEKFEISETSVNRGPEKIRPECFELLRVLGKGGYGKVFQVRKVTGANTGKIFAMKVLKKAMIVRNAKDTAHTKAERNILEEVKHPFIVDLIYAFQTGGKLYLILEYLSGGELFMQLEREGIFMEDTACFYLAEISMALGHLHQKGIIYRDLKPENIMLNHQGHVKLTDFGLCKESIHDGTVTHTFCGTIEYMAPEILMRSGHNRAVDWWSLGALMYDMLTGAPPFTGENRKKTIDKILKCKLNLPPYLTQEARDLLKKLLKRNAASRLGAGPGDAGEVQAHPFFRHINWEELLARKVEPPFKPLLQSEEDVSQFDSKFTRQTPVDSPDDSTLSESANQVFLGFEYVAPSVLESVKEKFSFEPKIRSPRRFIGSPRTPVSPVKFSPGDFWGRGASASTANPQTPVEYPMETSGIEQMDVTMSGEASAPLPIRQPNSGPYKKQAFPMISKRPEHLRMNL

The assay addresses T1, P70S6K (T412E mutant, Millipore) (Homo sapiens, UniProt P23443, T412E).
T1 construct: purchased Millipore
The assay can be described thus: p70S6K enzyme assay. The settings on record: class symbol; 3 nM P70S6K, 24 μM ATP; read-out: IC50 (p70S6K). The format is biochemical. As to the method:
P70S6K inhibitor compounds are diluted and plated in 96 well plates. A reaction mixture including the following components is then added to the compound plate to initiate the enzyme reaction; P70S6K (3 nM, T412E mutant, Millipore) is mixed with 24 μM ATP in an assay buffer containing 100 mM Hepes (pH 7.5), 5 mM MgCl2, 1 mM DTT, 0.015% Brij and 1 μM of the substrate peptide FITC-AHA-AKRRRLSSLRA-OH (derived from the S6 ribosomal protein sequence, FITC=fluorescein isothiocyanate, AHA=6-aminohexanoic acid). The reaction is incubated for 90 min at 25° C., before the addition of 10 mM EDTA to stop the reaction. The proportion of substrate and product (phosphorylated) peptide is analysed on a Caliper Life Sciences Lab Chip 3000, using a pressure of −1.4 psi, and upstream and downstream voltages of −3000 and −700 respectively. Product peaks are resolved before substrate peaks on the resulting chromatograms.
For `Cc1ccc([C@@H](CN)NC(=O)c2sccc2Nc2ccnc3[nH]ccc23)cc1` (stereo in doubt) [Example 122, 3-(1H-Pyrrolo[2,3-b]pyridin-4-ylamino)-thiophene-2-carboxylic acid (2-amino-1-p-tolyl-ethyl)-amide], the IC50 is < 100 nM.

As to `COc1cccc([C@@H](CN)NC(=O)c2sccc2Nc2ccnc3[nH]ccc23)c1` (stereo in doubt) [Example 123, 3-(1H-Pyrrolo[2,3-b]pyridin-4-ylamino)-thiophene-2-carboxylic acid [2-amino-1-(3-methoxy-phenyl)-ethyl]-amide], the IC50 was < 100 nM.

`NC[C@@H](NC(=O)c1sccc1Nc1ccnc2[nH]ccc12)c1cccc(Cl)c1` (stereo in doubt) [Example 124, 3-(1H-Pyrrolo[2,3-b]pyridin-4-ylamino)-thiophene-2-carboxylic acid [2-amino-1-(3-chloro-phenyl)-ethyl]-amide]: the IC50 was < 100 nM.

As for `NC[C@@H](NC(=O)c1sccc1Nc1ccnc2[nH]ccc12)c1ccc(Cl)c(Cl)c1` (stereo in doubt) [Example 125, 3-(1H-Pyrrolo[2,3-b]pyridin-4-ylamino)-thiophene-2-carboxylic acid [2-amino-1-(3,4-dichloro-phenyl)-ethyl]-amide], the IC50 was < 100 nM.

As for `O=C(NCC1CCCO1)c1sccc1Nc1ccnc2[nH]ccc12` (stereo not shown) [Example 3, 3-(1H-Pyrrolo[2,3-b]pyridin-4-ylamino)-thiophene-2-carboxylic acid (tetrahydro-furan-2-ylmethyl)-amide], the IC50 lay in the range of 100 to 1000 nM.

In the case of `O=C(c1sccc1Nc1ccnc2[nH]ccc12)N1CCCC1` [Example 4, Pyrrolidin-1-yl-[3-(1H-pyrrolo[2,3-b]pyridin-4-ylamino)-thiophen-2-yl]-methanone], the half-inhibitory concentration (IC50) was in the range of 100 to 1000 nM.

As to `CC(C)(C)OC(=O)N1CCC(NC(=O)c2sccc2Nc2ccnc3[nH]ccc23)C1` (stereo not shown) [Example 5, 3-{[3-(1H-Pyrrolo[2,3-b]pyridin-4-ylamino)-thiophene-2-carbonyl]-amino}-pyrrolidine-1-carboxylic acid tert-butyl ester], the IC50 fell in the range of 100 to 1000 nM.

Take `O=C(NC1CCNC1)c1sccc1Nc1ccnc2[nH]ccc12` (stereo not shown) [Example 6, 3-(1H-Pyrrolo[2,3-b]pyridin-4-ylamino)-thiophene-2-carboxylic acid pyrrolidin-3-ylamide]: the concentration for half-maximal inhibition (IC50) was < 100 nM.

`O=C(NCc1ccccn1)c1sccc1Nc1ccnc2[nH]ccc12` [Example 7, 3-(1H-Pyrrolo[2,3-b]pyridin-4-ylamino)-thiophene-2-carboxylic acid (pyridin-2-ylmethyl)-amide]: the IC50 lay in the range of 100 to 1000 nM.

In the case of `O=C(NCc1cccnc1)c1sccc1Nc1ccnc2[nH]ccc12` [Example 8, 3-(1H-Pyrrolo[2,3-b]pyridin-4-ylamino)-thiophene-2-carboxylic acid (pyridin-3-ylmethyl)-amide], the half-maximal inhibitory concentration (IC50) was in the range of 100 to 1000 nM.

As to `O=C(NC1CCCNC1)c1sccc1Nc1ccnc2[nH]ccc12` (stereo not shown) [Example 9, 3-(1H-Pyrrolo[2,3-b]pyridin-4-ylamino)-thiophene-2-carboxylic acid piperidin-3-ylamide], the IC50 lay in the range of 100 to 1000 nM.

As to `CC(CO)NC(=O)c1sccc1Nc1ccnc2[nH]ccc12` (stereo not shown) [Example 10, 3-(1H-Pyrrolo[2,3-b]pyridin-4-ylamino)-thiophene-2-carboxylic acid (2-hydroxy-1-methyl-ethyl)-amide], the 50% inhibitory concentration (IC50) was in the range of 100 to 1000 nM.

As for `CC(O)CNC(=O)c1sccc1Nc1ccnc2[nH]ccc12` (stereo not shown) [Example 11, 3-(1H-Pyrrolo[2,3-b]pyridin-4-ylamino)-thiophene-2-carboxylic acid (2-hydroxy-propyl)-amide], the IC50 was in the range of 100 to 1000 nM.

As for `O=C(NCCOc1ccccc1)c1sccc1Nc1ccnc2[nH]ccc12` [Example 12, 3-(1H-Pyrrolo[2,3-b]pyridin-4-ylamino)-thiophene-2-carboxylic acid (2-phenoxy-ethyl)-amide], the IC50 is 100 to 1000 nM.

`O=C(NCCC1=CCCCC1)c1sccc1Nc1ccnc2[nH]ccc12` [Example 13, 3-(1H-Pyrrolo[2,3-b]pyridin-4-ylamino)-thiophene-2-carboxylic acid (2-cyclohex-1-enyl-ethyl)-amide]: the IC50 was < 100 nM.

As to `NS(=O)(=O)c1ccc(CCNC(=O)c2sccc2Nc2ccnc3[nH]ccc23)cc1` [Example 14, 3-(1H-Pyrrolo[2,3-b]pyridin-4-ylamino)-thiophene-2-carboxylic acid [2-(4-sulfamoyl-phenyl)-ethyl]-amide], the IC50 is < 100 nM.

On to `O=C(NCCc1c[nH]cn1)c1sccc1Nc1ccnc2[nH]ccc12` [Example 15, 3-(1H-Pyrrolo[2,3-b]pyridin-4-ylamino)-thiophene-2-carboxylic acid [2-(1H-imidazol-4-yl)-ethyl]-amide], for which the 50% inhibitory concentration (IC50) was 100 to 1000 nM.

With `O=C(NCCN1CCOCC1)c1sccc1Nc1ccnc2[nH]ccc12` [Example 16, 3-(1H-Pyrrolo[2,3-b]pyridin-4-ylamino)-thiophene-2-carboxylic acid (2-morpholin-4-yl-ethyl)-amide], the IC50 lay in the range of 100 to 1000 nM.

As for `O=C(NCCc1ccncc1)c1sccc1Nc1ccnc2[nH]ccc12` [Example 17, 3-(1H-Pyrrolo[2,3-b]pyridin-4-ylamino)-thiophene-2-carboxylic acid (2-pyridin-4-yl-ethyl)-amide], the IC50 was in the range of 100 to 1000 nM.

With `O=C(NCCc1cccc(C(F)(F)F)c1)c1sccc1Nc1ccnc2[nH]ccc12` [Example 18, 3-(1H-Pyrrolo[2,3-b]pyridin-4-ylamino)-thiophene-2-carboxylic acid [2-(3-trifluoromethyl-phenyl)-ethyl]-amide], the IC50 was < 100 nM.

As for `O=C(NCCc1ccccn1)c1sccc1Nc1ccnc2[nH]ccc12` [Example 19, 3-(1H-Pyrrolo[2,3-b]pyridin-4-ylamino)-thiophene-2-carboxylic acid (2-pyridin-2-yl-ethyl)-amide], the IC50 was 100 to 1000 nM.

For `O=C(NCCc1cccc(Cl)c1)c1sccc1Nc1ccnc2[nH]ccc12` [Example 20, 3-(1H-Pyrrolo[2,3-b]pyridin-4-ylamino)-thiophene-2-carboxylic acid [2-(3-chloro-phenyl)-ethyl]-amide], the IC50 is < 100 nM.

As to `O=C(NCCc1cccs1)c1sccc1Nc1ccnc2[nH]ccc12` [Example 21, 3-(1H-Pyrrolo[2,3-b]pyridin-4-ylamino)-thiophene-2-carboxylic acid (2-thiophen-2-yl-ethyl)-amide], the IC50 was < 100 nM.

With `O=C(NCCc1cccc(F)c1)c1sccc1Nc1ccnc2[nH]ccc12` [Example 22, 3-(1H-Pyrrolo[2,3-b]pyridin-4-ylamino)-thiophene-2-carboxylic acid [2-(3-fluoro-phenyl)-ethyl]-amide], the half-maximal inhibitory concentration (IC50) is < 100 nM.

With `O=C(NCCc1ccc(F)cc1)c1sccc1Nc1ccnc2[nH]ccc12` [Example 23, 3-(1H-Pyrrolo[2,3-b]pyridin-4-ylamino)-thiophene-2-carboxylic acid [2-(4-fluoro-phenyl)-ethyl]-amide], the IC50 was < 100 nM.

For `O=C(NCCSCc1ccco1)c1sccc1Nc1ccnc2[nH]ccc12` [Example 24, 3-(1H-Pyrrolo[2,3-b]pyridin-4-ylamino)-thiophene-2-carboxylic acid [2-(furan-2-ylmethylsulfanyl)-ethyl]-amide], the IC50 was < 100 nM.

`Cc1ccccc1CCNC(=O)c1sccc1Nc1ccnc2[nH]ccc12` [Example 25, 3-(1H-Pyrrolo[2,3-b]pyridin-4-ylamino)-thiophene-2-carboxylic acid (2-o-tolyl-ethyl)-amide]: the 50% inhibitory concentration (IC50) was < 100 nM.

For `COc1cccc(CCNC(=O)c2sccc2Nc2ccnc3[nH]ccc23)c1` [Example 26, 3-(1H-Pyrrolo[2,3-b]pyridin-4-ylamino)-thiophene-2-carboxylic acid [2-(3-methoxy-phenyl)-ethyl]-amide], the IC50 is < 100 nM.

Regarding `O=C(NCCc1ccc(Br)cc1)c1sccc1Nc1ccnc2[nH]ccc12` [Example 27, 3-(1H-Pyrrolo[2,3-b]pyridin-4-ylamino)-thiophene-2-carboxylic acid [2-(4-bromo-phenyl)-ethyl]-amide], the IC50 is < 100 nM.

As for `COc1ccc(CCNC(=O)c2sccc2Nc2ccnc3[nH]ccc23)cc1` [Example 28, 3-(1H-Pyrrolo[2,3-b]pyridin-4-ylamino)-thiophene-2-carboxylic acid [2-(4-methoxy-phenyl)-ethyl]-amide], the IC50 is < 100 nM.

In the case of `O=C(NCCNCc1ccccc1)c1sccc1Nc1ccnc2[nH]ccc12` [Example 29, 3-(1H-Pyrrolo[2,3-b]pyridin-4-ylamino)-thiophene-2-carboxylic acid (2-benzylamino-ethyl)-amide], the IC50 was < 100 nM.

Consider `O=C(NCc1cccc(Cl)c1)c1sccc1Nc1ccnc2[nH]ccc12` [Example 30, 3-(1H-Pyrrolo[2,3-b]pyridin-4-ylamino)-thiophene-2-carboxylic acid 3-chloro-benzylamide], for which the IC50 was < 100 nM.

As for `O=C(NCCCCO)c1sccc1Nc1ccnc2[nH]ccc12` [Example 31, 3-(1H-Pyrrolo[2,3-b]pyridin-4-ylamino)-thiophene-2-carboxylic acid (4-hydroxy-butyl)-amide], the IC50 fell in the range of 100 to 1000 nM.

Regarding `CC(=O)NCCCCNC(=O)c1sccc1Nc1ccnc2[nH]ccc12` [Example 32, 3-(1H-Pyrrolo[2,3-b]pyridin-4-ylamino)-thiophene-2-carboxylic acid (4-acetylamino-butyl)-amide], the IC50 lay within 100 to 1000 nM.

The values above are taken from patent US9023847B2, “Azaheterocyclic compounds” (Merck Patent GmbH, priority 2009, dated 2015).
